These results are taken from patent US4022832A, “2-Aminoacetamido-α-phenylbenzylideneaminoalkanol derivatives and process for the preparation thereof” (Sankyo Company Limited, priority 1975, dated 1977).

Holding throughout (assay type): in vivo
The subject of assay [1] is mice. The experiment in a line: Potentiation of anesthesia (thiopental). The settings on record: Mus musculus, po, P.O., 1 hour before 30mg/kg thiopental i.v., dose prolonging loss of righting reflex twice that of thiopental only, Litchfield and Wilcoxon. On the procedure:
(3) Potentiation of anesthesia
One hour after oral administration of the test compound, 30mg/kg of thiopental is intravenously injected, and the dose is determined which prolongs the duration of loss of the righting reflex twice that of the group administered only with thiopental.
(§1) (4) Calculation of ED50 values
(§2) The values are calculated according to the method of Litchfield and Wilcoxon [J. Pharmcol. Exp. Therap., 96, 99 (1949)].

Assay [2] has as its system mice. Nature of the assay: Anti-bemegride convulsant effect. The following applies: Mus musculus, po, P.O., 1 hour before 30mg/kg bemegride s.c., observed for 30 minutes, Litchfield and Wilcoxon. On the procedure: (1) Anti-bemegride convulsant effect
One hour after oral administration of the test compound, 30mg/kg of bemegride is subcutaneously injected and the anti-convulsant activity of the compound is observed for 30 minutes.
as §1, §2

Assay [3] deals with mice. The experiment in a line: Anti-electroshock convulsant effect. The following applies: Mus musculus, po, P.O., 1 hour before electroshock (1000V, 12.5mA, 0.2sec.) through both corneas, Litchfield and Wilcoxon. On the procedure:
(2) Anti-electroshock convulsant effect
One hour after oral administration of the test compound, an electroshock (1000V, 12.5mA, 0.2sec.) is applied through both corneas and anti-convulsant activity of the compound is observed.
as §1, §2

Turning to `NCC(=O)Nc1ccc(Br)cc1C(=NCCO)c1ccccc1F` [2-{[2-Aminoacetamido-5-bromo-α -(2-fluorophenyl)benzylidene]amino}ethanol], the median effective dose (ED50) came to 2.9 mg/kg in assay [1], 0.31 mg/kg in assay [2] and 8 mg/kg in assay [3].
Consider `CNC1=Nc2ccc(Cl)cc2C(c2ccccc2)=[N+]([O-])C1` [Chlordiazepoxide], for which the ED50 in assay [1] amounted to 12 mg/kg; in assay [2] it was 2.7 mg/kg; in assay [3], 27 mg/kg.

By ED50 is commonly meant the dose that gives a 50% effect, or the effect in half of the subjects.
